Data published in patent publication US20120010179A1, “Methods of using a thiazole derivative” (priority 2006, published 2012).

Tested on: patients with COPD
Assay: Pulmonary function tests (spirometry FEV1, FVC), tetomilast with inhaled albuterol, crossover study (Example 1)
Format: in vivo, human
Details: for Estimated Treatment Effect, change from baseline in FEV1 (tetomilast versus placebo) / Estimated Treatment Effect, change from baseline in FVC (tetomilast versus placebo) / LS Mean change from baseline in FEV1 (repeated measures ANOVA) / LS Mean change from baseline in FVC (repeated measures ANOVA) / Mean (SD) change from baseline in FEV1 / Mean (SD) change from baseline in FVC: steady-state (predose) baseline, Day 8/23; for Estimated Treatment Effect, change from baseline in FEV1 (tetomilast versus placebo) / Estimated Treatment Effect, change from baseline in FVC (tetomilast versus placebo): both with inhaled albuterol; for LS Mean change from baseline in FEV1 (repeated measures ANOVA) / LS Mean change from baseline in FVC (repeated measures ANOVA) / Mean (SD) change from baseline in FEV1 / Mean (SD) change from baseline in FVC: tetomilast 50 mg QD + inhaled albuterol
Protocol: Pulmonary function tests were conducted throughout the study to monitor the subjects' respiratory status. Flow volume curves were collected via spirometry. Combivent® (Boehringer Ingleheim Pharmaceuticals, Inc., Ridgefield Conn.), which was used for short-acting rescues as needed throughout the studies described below, was withheld for 6 hours prior to any spirometric testing. Spirometry testing was performed at screening, baseline (Day 0), and at specific times during the treatment period. Each subject could have up to 5 spirometric readings at any study time point. Spirometric readings were performed using equipment from the central provider, Quantum Research, Inc. (Louisville, Colo.). All spirometry readings were recorded and sent to Quantum Research, Inc. for analysis
For the spirometric readings, the best effort was reported as follows. The highest acceptable forced expiratory volume in one second (FEV1) value was selected as the “best” of the given test session. If two or more FEV1 values were tied as highest, the sum of FEV1 and forced vital capacity (FVC) for those efforts was used. If both conditions were equal between the two efforts, the values reported were taken from the effort that occurred first, chronologically, based on date and time of the effort.
This study was a multicenter, randomized, double-blind, placebo-controlled, crossover, multiple dose, outpatient study in 27 patients with COPD. All subjects underwent a 28-day washout from inhaled corticosteroids and/or long-acting bronchodilators and/or continuous oxygen therapy (≧16 hours per day) and a 7-day washout from oral beta2-agonists and/or oral theophylline salts prior to baseline. Randomized subjects received an 8-day administration of oral placebo or tetomilast 50 mg oral dose (2×25 mg tablets) once daily (QD). On study Day 8, four consecutive doses of inhaled albuterol (90 μg albuterol base per puff) were given via a metered dose inhaler (MDI) and holding chamber (Ventolin®, GlaxoSmithKline, Research Triangle Park, N.C.), one dose every 30 minutes over the course of 90 minutes at doses of 90 μg+90 μg+180 μg+360 μg for a total dose of 720 μg (albuterol base) or 8 puffs.
Subjects entered a 7-day washout period (study days 9 through 15) and were then crossed over to the alternate treatment arm (placebo or tetomilast 50 mg oral dose). On study [0105] Day 23, the inhaled albuterol multiple dosing was repeated.
On Days 1-6 and 17-21, subjects were instructed to take their oral study medication (placebo or tetomilast 50 mg) QD with 8 ounces of water immediately before breakfast. Subjects assigned to the placebo arm received two placebo tablets QD. On Days 7, 8, 16, 22, and 23, subjects took their oral medication (placebo or tetomilast 50 mg) at the clinic in the presence of the study staff.
Combivent® inhalation aerosol use was allowed for short-acting rescue as needed throughout the study except on study days where PK samples were collected, on days when the multiple doses of inhaled albuterol were administered in the clinic, and/or on days when spirometry testing was performed. On all study days where PK samples were collected, Combivent® was withheld 6 hours prior to the PK draw. Additionally, on study Days 8 and 23 (when the multiple doses of inhaled albuterol were administered in the clinic), Combivent® was withheld 6 hours prior to PK assessment and throughout the duration of the clinic visit. Combivent® was withheld for six hours prior to spirometry testing. The recommended dose of Combivent® Inhalation Aerosol is two inhalations four times a day. In this study, subjects were permitted to take additional inhalations as required; however, the total number of inhalations was not to exceed 12 in 24 hours. Subjects were to “test-spray” three times before using for the first time and in cases where the aerosol had not been used for more than 24 hours. […]

CCOc1ccc(-c2nc(-c3cccc(C(=O)O)n3)cs2)cc1OCC [Tetomilast, 2-(3,4-diethoxyphenyl)-4-(2-carboxy-6-pyridyl)thiazole]
FVC steady-state (predose) baseline value, Mean (SD) (predose Day 8/23, on tetomilast 50 mg QD, prior to inhaled albuterol): 2.67 (0.88) L
FEV1 steady-state (predose) baseline value, Mean (predose Day 8/23, on tetomilast 50 mg QD, prior to inhaled albuterol, Table 3): 1.40 L
FVC steady-state (predose) baseline value, Mean (predose Day 8/23, on tetomilast 50 mg QD, prior to inhaled albuterol, Table 4): 2.67 L
Estimated Treatment Effect, change from baseline in FEV1 (tetomilast versus placebo) (5 min postdose): -0.01 L
Estimated Treatment Effect, change from baseline in FVC (tetomilast versus placebo) (5 min postdose): 0.01 L
LS Mean change from baseline in FEV1 (repeated measures ANOVA) (5 min postdose): 0.16 L
LS Mean change from baseline in FVC (repeated measures ANOVA) (5 min postdose): 0.30 L
Mean (SD) change from baseline in FEV1 (5 min postdose): 0.16 (0.09) L
Mean (SD) change from baseline in FVC (5 min postdose): 0.27 (0.25) L
Estimated Treatment Effect, change from baseline in FEV1 (tetomilast versus placebo) (25 min postdose): 0.03 L
Estimated Treatment Effect, change from baseline in FVC (tetomilast versus placebo) (25 min postdose): 0.03 L
LS Mean change from baseline in FEV1 (repeated measures ANOVA) (25 min postdose): 0.19 L
LS Mean change from baseline in FVC (repeated measures ANOVA) (25 min postdose): 0.29 L
Mean (SD) change from baseline in FEV1 (25 min postdose): 0.19 (0.16) L
Mean (SD) change from baseline in FVC (25 min postdose): 0.29 (0.37) L
Estimated Treatment Effect, change from baseline in FEV1 (tetomilast versus placebo) (35 min postdose): 0.03 L
Estimated Treatment Effect, change from baseline in FVC (tetomilast versus placebo) (35 min postdose): 0.01 L
LS Mean change from baseline in FEV1 (repeated measures ANOVA) (35 min postdose): 0.24 L
LS Mean change from baseline in FVC (repeated measures ANOVA) (35 min postdose): 0.39 L
Mean (SD) change from baseline in FEV1 (35 min postdose): 0.24 (0.18) L
Mean (SD) change from baseline in FVC (35 min postdose): 0.39 (0.36) L
Estimated Treatment Effect, change from baseline in FEV1 (tetomilast versus placebo) (55 min postdose): 0.05 L
Estimated Treatment Effect, change from baseline in FVC (tetomilast versus placebo) (55 min postdose): 0.07 L
LS Mean change from baseline in FEV1 (repeated measures ANOVA) (55 min postdose): 0.27 L
LS Mean change from baseline in FVC (repeated measures ANOVA) (55 min postdose): 0.37 L
Mean (SD) change from baseline in FEV1 (55 min postdose): 0.26 (0.20) L
Mean (SD) change from baseline in FVC (55 min postdose): 0.36 (0.37) L
Estimated Treatment Effect, change from baseline in FEV1 (tetomilast versus placebo) (65 min postdose): 0.06 L
Estimated Treatment Effect, change from baseline in FVC (tetomilast versus placebo) (65 min postdose): 0.13 L
LS Mean change from baseline in FEV1 (repeated measures ANOVA) (65 min postdose): 0.30 L
LS Mean change from baseline in FVC (repeated measures ANOVA) (65 min postdose): 0.50 L
Mean (SD) change from baseline in FEV1 (65 min postdose): 0.30 (0.20) L
Mean (SD) change from baseline in FVC (65 min postdose): 0.50 (0.40) L
Estimated Treatment Effect, change from baseline in FEV1 (tetomilast versus placebo) (85 min postdose): 0.05 L
Estimated Treatment Effect, change from baseline in FVC (tetomilast versus placebo) (85 min postdose): 0.05 L
LS Mean change from baseline in FEV1 (repeated measures ANOVA) (85 min postdose): 0.31 L
LS Mean change from baseline in FVC (repeated measures ANOVA) (85 min postdose): 0.45 L
Mean (SD) change from baseline in FEV1 (85 min postdose): 0.31 (0.20) L
Mean (SD) change from baseline in FVC (85 min postdose): 0.45 (0.39) L
Estimated Treatment Effect, change from baseline in FEV1 (tetomilast versus placebo) (95 min postdose): 0.05 L
Estimated Treatment Effect, change from baseline in FVC (tetomilast versus placebo) (95 min postdose): 0.12 L
LS Mean change from baseline in FEV1 (repeated measures ANOVA) (95 min postdose): 0.34 L
LS Mean change from baseline in FVC (repeated measures ANOVA) (95 min postdose): 0.53 L
Mean (SD) change from baseline in FEV1 (95 min postdose): 0.34 (0.21) L
Mean (SD) change from baseline in FVC (95 min postdose): 0.53 (0.42) L
Estimated Treatment Effect, change from baseline in FEV1 (tetomilast versus placebo) (115 min postdose): 0.05 L
Estimated Treatment Effect, change from baseline in FVC (tetomilast versus placebo) (115 min postdose): 0.11 L
LS Mean change from baseline in FEV1 (repeated measures ANOVA) (115 min postdose): 0.33 L
LS Mean change from baseline in FVC (repeated measures ANOVA) (115 min postdose): 0.51 L
Mean (SD) change from baseline in FEV1 (115 min postdose): 0.33 (0.20) L
Mean (SD) change from baseline in FVC (115 min postdose): 0.51 (0.48) L
Estimated Treatment Effect, change from baseline in FEV1 (tetomilast versus placebo) (175 min postdose): 0.06 L
Estimated Treatment Effect, change from baseline in FVC (tetomilast versus placebo) (175 min postdose): 0.07 L
LS Mean change from baseline in FEV1 (repeated measures ANOVA) (175 min postdose): 0.34 L
LS Mean change from baseline in FVC (repeated measures ANOVA) (175 min postdose): 0.50 L
Mean (SD) change from baseline in FEV1 (175 min postdose): 0.34 (0.21) L
Mean (SD) change from baseline in FVC (175 min postdose): 0.50 (0.38) L
Estimated Treatment Effect, change from baseline in FEV1 (tetomilast versus placebo) (235 min postdose): 0.04 L
Estimated Treatment Effect, change from baseline in FVC (tetomilast versus placebo) (235 min postdose): 0.01 L
LS Mean change from baseline in FEV1 (repeated measures ANOVA) (235 min postdose): 0.32 L
LS Mean change from baseline in FVC (repeated measures ANOVA) (235 min postdose): 0.39 L
Mean (SD) change from baseline in FEV1 (235 min postdose): 0.32 (0.25) L
Mean (SD) change from baseline in FVC (235 min postdose): 0.40 (0.50) L
Estimated Treatment Effect, change from baseline in FEV1 (tetomilast versus placebo) (295 min postdose): 0.03 L
Estimated Treatment Effect, change from baseline in FVC (tetomilast versus placebo) (295 min postdose): 0.11 L
LS Mean change from baseline in FEV1 (repeated measures ANOVA) (295 min postdose): 0.23 L
LS Mean change from baseline in FVC (repeated measures ANOVA) (295 min postdose): 0.35 L
Mean (SD) change from baseline in FEV1 (295 min postdose): 0.23 (0.26) L
Mean (SD) change from baseline in FVC (295 min postdose): 0.35 (0.50) L
Estimated Treatment Effect, change from baseline in FEV1 (tetomilast versus placebo) (355 min postdose): 0.11 L
Estimated Treatment Effect, change from baseline in FVC (tetomilast versus placebo) (355 min postdose): 0.17 L
LS Mean change from baseline in FEV1 (repeated measures ANOVA) (355 min postdose): 0.23 L
LS Mean change from baseline in FVC (repeated measures ANOVA) (355 min postdose): 0.32 L
Mean (SD) change from baseline in FEV1 (355 min postdose): 0.23 (0.22) L
Mean (SD) change from baseline in FVC (355 min postdose): 0.32 (0.43) L
